Data from US20250026747A1, “COLIBACTIN DERIVATIVES AND METHODS OF TREATING, AMELIORATING, AND/OR PREVENTING CANCER” (priority 2021, published 2025).

What was measured:
Assay type in all cases: cell-based, human
[1] = system: HeLa cells; experiment: Cell viability assay (CellTiter-GLO) in HeLa cells; details: 72 h, 24 nM to 100 μM
Experimental: (§1) FIGS. 12A-12E show the results of the Cell viability assays. Specifically, HeLa cells were incubated with: (FIG. 12A) compound 9; (FIG. 12B) colibactin 742 (4); (FIG. 12C) compound 22; (FIG. 12D) compound 23; or (FIG. 12E) compound 24 at 24 nM-100 μM for 72 h, according some embodiments. The cells were then incubated with CTG reagent and the luminescence was measured. Results were normalized to DMSO control (0.1%, 0% effect) tamoxifen (60 μM, 100% effect). The points are the averages of twelve measurements (triplicates of four). The lines are four parameters logistic regression (4PL) fit. Error bars represent 95% confidence ranges.
(§2) Experiments to determine if the cyclized and linear forms (colibactin 742 (4) and 9, respectively) are cytotoxic were conducted. As discussed above, the timing of the cyclization events that form the colibactin warheads is not known. To probe this, the instant study measured the cytotoxicity of both the linear precursor 9 and colibactin 742 (4) toward human cervical cancer cells (HeLa). The compounds were incubated for 72 h at concentrations ranging from 24 nM to 100 μM. Cell viability was measured using CellTiter GLO assay and normalized to tamoxifen (60 μM, set at 100% effect) and methyl sulfoxide (DMSO, set at 0% effect). […] Additionally, this observation further supports the notion that while the C36-C37 1,2-diketone may dictate colibactin's half-life within the gut, it may not play a critical role in DNA damage.
(§3) Hela cells were grown in Dulbecco's Modified Eagle Medium (DMEM) supplemented with fetal bovine serum (FBS, 10%) and penicillin-streptomycin (0.1%) at 37° C. in a 95% humidity atmosphere under 5% CO2 environment. Cytotoxicity was determined using a CellTiter-GLO Assay. Cells were seeded at a density of 400 cells to achieve total well volumes of 20 μL in 384-well plates (black with an optically clear bottom, Greiner Bio One 781091) using a Thermo Combidrop liquid dispenser and grown for […] at 37° C., 5% CO2. Cells were grown for 24 h, followed by the addition of test compounds using an Echo acoustic liquid handler (Labcyte). For each tested drug concentration, a 20 nL aliquot of the 1000× stock was added to 20 μL of cells to provide a final DMSO concentration of 0.1%. The compounds were incubated for 72 h at concentrations ranging from 24 nM to 100 μM. Each plate contained negative vehicle control wells (0.1% DMSO) and positive control wells (60 μM tamoxifen). After 72 h, the cells were treated with 10 μL CTG reagent. […] The resulting luminescence was measured using a plate reader (Infinite M1000, TECAN Group AG). Biological triplicates, each measured four times (N=12), for each compound were recorded for each concentration and IC50 values were determined using Prism 9 (Graph Pad) fit with a four parameters nonlinear regression.

[2] = system: FANCD2; experiment: Immunofluorescence assay of FANCD2 foci in HeLa cells; details: 4 h treatment, 20 h further culture; for FANCD2 foci formation: 1-100 μM
Experimental: (§4) FIGS. 7A-7B evaluates the Colibactin 742 (4) and its linear precursor 9 recapitulate the clb phenotype. […] HeLa cells were treated with the linear precursor 9 (1-100 μM), colibactin 742 (4) (1-100 μM) or MMC (150 nM) for 4 h. The cells were then washed and incubated for 20 h before immunofluorescence imaging. Cells were considered positive when >5 FANCD2 or γH2AX foci formed. Means and standard deviations of results from at least three independent experiments are shown. FIG. 7B depicts the DNA content histograms upon treatment with colibactin 742 (4, 11 μM) or 9 (11 μM) quantification of the sub-population of the histograms.
(§5) The present study then probed the DNA damage response that was activated following exposure to colibactin 742 (4) or its linear precursor 9. In mammalian cells, DNA interstrand cross-links (ICLs) are repaired by the Fanconi anemia pathway, and activation of this pathway is observed when eukaryotic cells are infected with clb^+ bacteria. Upon detection of an ICL, the Fanconi anemia protein D2 (FANCD2) is activated by monoubiquitinylation and recruited to the ICL to coordinate repair. Following initiation of repair, a double-strand break (DSB) is generated, which in turns triggers the formation of phospho-SER139-H2AX (γH2AX) nuclear foci. […] Consequently, the instant study probed for activation of FANCD2 and γH2AX by immunofluorescence imaging in cells treated with 4 or 9. Using conditions that closely mimic the bacterial coinfection experiments, the instant study treated HeLa cells with colibactin 742 (4) (1-100 μM), the linear precursor 9 (1-100 μM), or MMC (150 nM, higher concentrations of MMC reduced cell viability) for 4 h. The cells were then washed and cultured for a further 20 h. […] Thus, the synthetic compounds 4 and 9 induce a similar activation of the eukaryotic DNA damage response as clb^+ E. coli.
(§6) Cells were seeded at a density of 3500 cells per well to achieve total well volumes of 20 μL in 384-well plates (black with an optically clear bottom, Greiner Bio One 781091) using a Thermo Combidrop liquid dispenser. Cells were grown for 24 h, followed by the addition of test compounds using an Echo acoustic liquid handler (Labcyte). For each tested drug concentration, a 20 nL aliquot of the 1000× stock was added to 20 μL of cells to provide a final DMSO concentration of 0.1%. The compounds were incubated for 4 h at concentrations ranging from 1.2 μM to 100 μM in growth medium, at 37° C., 5% CO2. Each plate contained negative vehicle control wells (0.1% DMSO) and positive control wells (0.15 μM Mitomycin C, MMC). After 4 h incubation, the cells were washed once with Dulbecco's Phosphate-buffered solution (DPBS, Life Technologies), then fresh growth medium was added. The cells were incubated for 20 h, fixed, and subjected to immunofluorescence imaging.
(§7) Cells were fixed with 4% paraformaldehyde (PFA) (Electron Microscopy Sciences) in the presence of 0.02% Triton X-100 at room temperature (RT) for 20 min and then incubated in permeabilization/blocking solution [10% FBS and 0.5% Triton X-100 in phosphate-buffered saline (PBS)] at RT for 1 h. Primary antibodies were diluted 1:500 in permeabilization/blocking solution and used to stain cells at 4° C. overnight. […] Cells were imaged using the InCell 2200 Imaging System (GE Corp.) and analyzed using InCell Analyzer software (GE Corp.) to quantify the number of γH2AX and FANCD2 foci. Cells were counted as positive for focus formation when 5 foci/nucleus were detected.

[3] = system: γH2AX; experiment: Immunofluorescence assay of γH2AX foci in HeLa cells; details: 4 h treatment, 20 h further culture; for γH2AX foci formation: 1-100 μM; for number of positive cells for γH2AX foci: 11 μM, positive when >5 foci
Experimental: as §4, §5, §6, §7

[4] = Cell viability assay (CellTiter-GLO) in HeLa cells; details: human, 72 h, 24 nM to 100 μM, normalized to tamoxifen 60 μM and DMSO, read-out: half-maximal inhibitory potency (IC50), cytotoxicity
Experimental: as §1, §2, §3

| Compound | cytotoxicity [1] | FANCD2 foci formation [2] | γH2AX foci formation [3] | IC50 [4] [µM] | number of positive cells for FANCD2 foci (with respect to DMSO) ([2]; 33 μM) | number of positive cells for γH2AX foci [3] | number of positive cells for γH2AX foci (with respect to DMSO) ([3]; 33 μM) | number of positive cells for FANCD2 foci ([2]; 11 μM, positive when >5 foci) | cell death and decrease in positive cells at higher concentrations ([2]; higher concentrations (>33 μM)) |
| --- | --- | --- | --- | --- | --- | --- | --- | --- | --- |
| C[C@H]1CCC(C2=C(CC(=O)NCC(=O)c3csc(CCc4csc(CNC(=O)CC5=C(C6=N[C@@H](C)CC6)C(=O)NC5(C)C)n4)n3)C(C)(C)NC2=O)=N1 [compound 22] | showed no toxicity | did not induce | did not induce |  |  |  |  |  |  |
| CCOC(=O)c1csc(CNC(=O)CC2=C(C3=N[C@@H](C)CC3)C(=O)NC23CC3)n1 [compound 23, reference compound] |  |  |  | 8.4 ± 2.4 | three-fold increase | induced significant γH2AX foci formation | three-fold increase |  |  |
| C[C@H]1CCC(CC(=O)NC2(C(=O)CC(=O)NCC(=O)c3csc(CCc4csc(CNC(=O)CC(=O)C5(NC(=O)CC6=N[C@@H](C)CC6)CC5)n4)n3)CC2)=N1 [compound 9] |  |  |  | 7.2 ± 1.7 |  | four-fold increase |  | four-fold increase | induced cell death |
| CCOC(=O)c1nc(C2(O)CNC(=O)C2C2=C(C3=N[C@@H](C)CC3)C(=O)NC23CC3)cs1 (some centres unmarked) [compound 24] | showed no toxicity | did not induce | did not induce |  |  |  |  |  |  |
